Experimental data reported in patent US20120083473A1, “TREATMENT OF CONDITIONS BY TOLL-LIKE RECEPTOR MODULATORS” (priority 2010, published 2012).

Tests used:
[1] = PK analysis after i.v. administration in mice; assay type: in vivo
[2] = system: murine peritoneal macrophages (PEC); test: Dose-response of M1 and M2 gene expression in PEC (RT PCR); assay type: cell-based, mice; details: PECs treated 4 hours or 20 hours with increased concentrations
Method: A third group of experiments was performed to investigate the dose-response effects of TMX, its potency as compared to classical inflammatory signals (e.g. LPS) and the activation of selected transcription factors playing an established role in tolerance, as well as in the induction of M1/M2 polarized inflammatory programs. PECs treated for 4 hours or 20 hours with 100 ng/mlof LPS or increased concentrations of TMX or 1V209 were analyzed by RT PCR for the expression of representative M1 (TNFα, IL-12p40) and M2 (IL-10, TGFβ) genes. […] In this experiment, as compared to 1V209, TMX is a lower inducer of M1 genes expression.
Cell Culture and treatments. Peritoneal exudate cells (PEC) were harvested from mice injected with 1 ml of 3% (w/v) thioglycollate medium (Difco, Detroit, Mich.) 4 days prior to isolation. PECs were incubated in RPMI 1640 medium, containing 10% fetal bovine serum, 2 mM glutamine and 100 U/ml of penicillin-streptomycin. The concentration for the different treatments were as follows: LPS (100 ng/ml) (Lipopolysaccharide from Salmonella Abortus Equi S-form, Alexis), CpG (1 μg/ml), Pam3CSK (2 μg/ml), Poly I:C (10 μg/ml), Loxorubine (100 μM), flagellin (100 ng/ml) IL-1β (20 ng/ml), TNF (20 ng/ml), IL-10 (20 ng/ml) (Peprotech), IFNγ (200 U/ml) (Peprotech). To induce TMX tolerance, cells were incubated in the presence of TMX (10 μM or 1 μM) for 20 hrs, washed and maintained in RPMI medium for 2 hrs and then re-challenged with TMX (10 μM) for 4 hrs. To induce TMX-tolerization (T/M) cells were treated with TMX for 20 hrs, washed and then maintained in medium for additional 6 hours, without TMX re-challenge. To induce M1-activation, cells were incubated in medium for 20 hrs, washed, left in medium for 2 hrs and finally stimulated with TMX (10 μM) for 4 hrs. Control cells (M/M) were cultured in medium for the entire period of the experiment. For gene expression analysis, total RNA was extracted from TMX treated and untreated cells with trizol (Invitrogen), according to the manufacturer's instructions. To analyze cytokines and chemokines production supernatants were collected 24 hrs after the second challenge with TMX.
(§1) Real-Time PCR. Total RNA was purified as previously described. Briefly, reverse transcription from 1 μg of RNA was performed using cDNA Archive kit (Applied Biosystem, NJ, USA). Real time PCR was performed using Power Syber Green PCR Master Mix (Applied Biosystem, NJ, USA) and detected by 7900HT Fast Real-Time System (Applied Biosystem, NJ, USA). Data were processed using the SDS2.2.2 software (Applied Biosystem, NJ, USA). Results were normalized to the expression of the housekeeping gene β-actin and then expressed as folds of upregulation, with respect to the control cell population.

human monocytes (Mo) = test: M1/M2 gene expression in human monocytes (Real-Time PCR); assay type: cell-based; details: excluding Mo from one healthy donor
Method: To evaluate the effects of TMX on human cell activation, monocytes were isolated from buffy coats obtained from four different healthy donors. With respect to macrophage tolerance, cells were treated with Compound 2 (10 microM) up to 20 hours and then re-challenged with agonists/ligands of different TLRs (TLR2, TLR4, TLR5, TLR9, TLR7, etc. . . . ), including the TLR7 unconjugated ligand 1V209 (free pharmacophore) at a concentration of 10 microM.
Cell Culture and treatments. Monocytes (Mo) were obtained from buffycoats collected from healthy donors as previously described (Porta C et al, PNAS 2009). Cells were incubated in RPMI 1640 medium, containing 10% fetal bovine serum, 2 mM glutamine and 100 U/ml of penicillin-streptomycin. The concentrations for the different treatments were as follows: LPS (100 ng/ml) (Lipopolysaccharide from Salmonella Abortus Equi S-form, Alexis), CpG (1 microg/ml), Pam3CSK (2 microg/ml), Poly I:C (10 microg/ml), Loxorubine (100 microM), flagellin (100 ng/ml). To induce TMX tolerance, cells were incubated in the presence of TMX (10 microM) for 20 hrs, washed and maintained in RPMI medium for 2 hrs and then re-challenged with TMX (10 microM) for 4 hrs. To induce TMX-tolerization (T/M) cells were treated with TMX for 20 hrs, washed and then maintained in medium for additional 6 hours, without TMX re-challenge. To induce M1-activation cells were incubated in medium for 20 hrs, washed, left in medium for 2 hrs and finally stimulated with TMX (10 microM) for 4 hrs. Control cells (M/M) were cultured in medium for the entire period of the experiment. For gene expression analysis, total RNA was extracted from TMX treated and untreated cells with trizol (Invitrogen), according to the manufacturer's instructions. To analyze cytokines and chemokines production supernatants were collected 24 hrs after the second challenge with TMX.
as §1, with “from 1 microgram of RNA” for “from 1 μg of RNA”, “performed using a cDNA Archive” for “performed using cDNA Archive”, “housekeeping gene 8-actin and then” for “housekeeping gene β-actin and then”

[3] = Dissolution in suitable solvents for testing; assay type: physicochemical

COCCOc1nc(N)c2nc(O)n(Cc3ccc(C(=O)NCCOCCOCCOCCOCCOCCOCCOCCOCCOCCOCCn4cc(CCC(=O)O)nn4)cc3)c2n1 [Compound 6, 3-(1-(1-(4-((6-amino-8-hydroxy-2-(2-methoxyethoxy)-9H-purin-9-yl)methyl)phenyl)-1-oxo-5,8,11,14,17,20,23,26,29,32-decaoxa-2-azatetratriacontan-34-yl)-1H-1,2,3-triazol-4-yl)propanoic acid]
AUC in comparison with Compound 3 [1]: lower | Cmax in comparison with Compound 3 [1]: lower | clearance in comparison with Compound 3 [1]: higher | half life in comparison with Compound 3 [1]: longer

COCCOc1nc(N)c2[nH]c(=O)n(Cc3ccc(C(=O)O)cc3)c2n1 [Compound 1V209, 4-((6-amino-2-(2-methoxyethoxy)-8-oxo-7H-purin-9(8H)-yl)methyl)benzoic acid, reference compound]
induction of both M1 and M2 gene expression [2]: dose-dependent induction | potency as compared to Compound 2 in terms of induction of both M1 and M2 gene expression (human monocytes (Mo)): higher potency

CCCCCCCC/C=C\CCCCCCCC(=O)OCC(COP(=O)(O)OCCNC(=O)c1ccc(Cn2c(=O)[nH]c3c(N)nc(OCCOC)nc32)cc1)OC(=O)CCCCCCC/C=C\CCCCCCCC (stereo not shown) [compound (6), 2-(4-((6-amino-2-(2-methoxyethoxy)-8-oxo-7H-purin-9(8H)-yl)methyl)benzamido)ethyl 2,3-bis(oleoyloxy)propyl phosphate]
dissolution in suitable solvents for testing [3]: difficulty in dissolution
